One assay has as its target T1, PPP1R15A-PP1 complex (Homo sapiens, UniProt O75807).
T1 construct: cDNAs encoding amino acids 325-636 of PPP1R15A and 340-698 of PPP1R15B were His-tagged and cloned into pMAL-c5x; made in house; host or cells: R15A: E. coli BL21-Gold (pMAL-c5x); PP1γ: Sf9 insect cells (baculovirus, pDW464)
Put plainly: SPR steady-state binding to R15A-PP1 holophosphatase. The note with it: SPR steady-state, MBP-R15A325-636-His captured on bio-PP1c, 10° C.; read-out: R15A (KD). The method, then: (§1) PPP1R15A^325-636 and PPP1R15B^340-698 were expressed and purified as follows: the cDNAs encoding amino acids 325-636 of PPP1R15A and 340-698 of PPP1R15B were His-tagged and cloned into pMAL-c5x. Recombinant PPP1R15A/B were expressed in BL21-Gold cells and purified by affinity chromatography on a HisTrap HP column (GE Healthcare), followed by a MBPTrap HP column (GE Healthcare). The proteins were analyzed on BOLT SDS-PAGE 4-12% Bis-Tris gels (Life Technologies) stained with SimplyBlue SafeStain (Life Technologies). cDNA encoding for human PP1γ was cloned into the baculovirus transfer vector pDW464 to add a biotin acceptor peptide (BAP). The vector also encodes for the E. coli biotin holoenzyme synthetase (BirA), so that BAP-tagged proteins can be biotinylated in vivo in Spodoptere frugiperda (Sf9) insect cells (Duffy et al., Anal. Biochem., 262, 122-128, 1998). The Bac-to-Bac baculovirus expression system (Life Technologies) was used to generate the recombinant bacmid DNA and Sf9 insect cells were used to amplify the viral stocks Cultures were harvested by centrifuging at 1,200 g for 15 minutes, cell pellets were resuspended in lysis buffer (50 mM Tris pH 7.4, 150 mM NaCl, 0.2% Triton, 5% Glycerol, 1 PiC tablet (Roche) per 50 ml and 0.2 mM PMSF) and followed by gentle sonication. The protein was first purified on a 5 ml HiTrap Q HP column (GE Healthcare) followed by a HiLoad 16/600 Superdex 200 column (GE Healthcare). The positive fractions confirmed by SDS-PAGE and western blot were pooled, concentrate to ˜1 μM and stored at −80° C.
(§2) A Biacore T200 (GE Healthcare) system was used for all experiments and biotinylated PP1 was captured using a Sensor Chip SA (GE Healthcare, catalog no BR-1005-31). The streptavidin coated surface was activated by 1 min injection with a solution of 50 mM NaOH and 1 M NaCl. Biotin-PP1 was diluted in the running buffer (50 mM Tris pH 7.5, 100 mM NaCl, 0.1 mM EGTA, 1 mM MnCl2, 0.05% Tween 20) and injected at approximately 300 nM concentration directly to streptavidin coated surface for 100 sec or to reach immobilization level of biotin-PP1 corresponding to ˜7000 RU. A blank immobilization was performed for one of the SA sensor chip surface to use as a reference.
(§3) With minor deviations, the same procedure and conditions were used in all binding experiments. Small molecules were stored as 50 mM stock solutions in 100% DMSO. Prior to determining binding constants, serial dilutions of either 12 or 8 concentrations of the compounds were prepared in the running buffer in a 96-well plate. Prior to each compound dilution series the regulatory subunit, R15A or R15B, was diluted to […] in the running buffer and captured on the biotin-PP1 surface, to form the holophosphatase complex on the sensor chip surface. Then, without regenerating the surface, the compound dilution series was injected onto the surface of the chip Sensorgrams were analyzed using the Biacore T200 evaluation software and the binding constants determined based on a steady-state model. Kinetic experiments are carried out using different concentrations of the compound and their respective equilibrium binding levels determined.
(§4) Surface Plasmon Resonance (SPR) was used to measure the binding affinity of compounds to the PPP1R15A/B-PP1 phosphatase complex. Biotin acceptor peptide (BAP) was fused to the N-terminus of PP1γ, which enables the biotinylation of the BAP-tagged protein in Sf9 insect cells. After purification the BAP-PP1γ protein was captured on a streptavidin sensor chip (SA-chip, GE healthcare) to a response level of ˜5.000 RU. Using controlled biotinylation enables orientated and uniform immobilization on the sensor chip surface. The PP1γ was then used to capture PPP1R15A/B and form a holophosphatase complex on the surface of the streptavidin chip. This complex can then be used to test binding of compounds. 10 μM PPP1R15A/B protein concentration was used to form the holophosphatase complex during a 80 s injection. […]

The target of another assay is T2, PPP1R15B-PP1 (Homo sapiens, UniProt Q5SWA1).
T2 construct: cDNAs encoding amino acids 325-636 of PPP1R15A and 340-698 of PPP1R15B were His-tagged and cloned into pMAL-c5x; made in house; host or cells: R15B: E. coli BL21-Gold (pMAL-c5x); PP1γ: Sf9 insect cells (baculovirus, pDW464)
T2 sequence (Q5SWA1 340-698): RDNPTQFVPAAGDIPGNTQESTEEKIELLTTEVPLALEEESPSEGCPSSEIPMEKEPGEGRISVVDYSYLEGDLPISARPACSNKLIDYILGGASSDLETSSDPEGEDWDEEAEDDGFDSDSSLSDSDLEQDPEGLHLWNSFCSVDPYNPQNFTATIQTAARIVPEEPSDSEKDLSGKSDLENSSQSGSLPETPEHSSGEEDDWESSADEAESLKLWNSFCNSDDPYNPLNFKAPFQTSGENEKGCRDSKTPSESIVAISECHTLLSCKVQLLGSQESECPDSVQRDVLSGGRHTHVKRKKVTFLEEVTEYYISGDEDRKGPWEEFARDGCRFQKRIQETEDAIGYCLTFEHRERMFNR
T2 sequence (P36873 whole entry partner, the tested form may be a part): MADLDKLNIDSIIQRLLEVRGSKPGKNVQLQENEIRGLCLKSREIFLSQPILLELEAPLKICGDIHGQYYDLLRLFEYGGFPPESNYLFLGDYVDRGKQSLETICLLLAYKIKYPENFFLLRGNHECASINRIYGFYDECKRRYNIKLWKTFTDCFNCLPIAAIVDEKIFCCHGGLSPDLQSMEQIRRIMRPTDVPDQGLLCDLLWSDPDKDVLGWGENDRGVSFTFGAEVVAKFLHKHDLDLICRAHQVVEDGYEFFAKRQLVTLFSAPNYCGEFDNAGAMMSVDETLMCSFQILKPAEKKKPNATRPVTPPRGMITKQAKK
Put plainly: SPR steady-state binding to R15B-PP1 holophosphatase. The conditions noted are these: SPR steady-state, MBP-R15B340-698-His captured on bio-PP1c, 10° C.; read-out: R15B (KD). The method, then: as §1, §2, §3, §4

Another assay has as its target T3, PP1 (Homo sapiens, UniProt P36873).
T3 construct: made in house; host or cells: Sf9 insect cells (baculovirus, pDW464)
Put plainly: SPR binding to PP1 alone. The note with it: SPR steady-state, bio-PP1c surface. For orientation: In SPR one partner is held on a chip, and binding of the other changes the refractive index at the surface.

For the next assay, the system named is protein synthesis. Put plainly: Assessment of translation rates (35S-methionine labelling). The note with it: for Effect on translation ⇒ Inhibits: target(s) concluded to be inhibited; for Effect on translation: 35S-methionine labelling of cells. It counts as cell-based. The method, then: Cells (90,000 cells/ml) were plated in 12-well plates, treated as indicated, labelled with 100 μCi/mI 35S-methionine (Hartmann Analytic) for 10 minutes at 37° C., washed with ice-cold PBS and lysed in 120 μl Laemmli Buffer. Lysates were boiled at 95° C. for 5 minutes, sonicated and resolved on 4-12% Bolt Bis-Tris Plus Gels (Thermo Fisher Scientific). Gels were then stained with InstantBlue (Expedeon) and analyzed by phosphorimaging and quantified using ImageJ.
By monitoring translation rates as described above, the activities of R15A, R15B and R15A/B inhibitors can be defined as follows (also shown in FIG. 12). An R15A inhibitor has no effect on translation in unstressed cells but prolongs translation attenuation following stress. A selective R15B inhibitor transiently attenuate protein synthesis because R15A compensates for the inhibition of R15B.

Broadly, the Kd is the concentration at which binding is half-saturated.

T1 sequence (O75807 325-636): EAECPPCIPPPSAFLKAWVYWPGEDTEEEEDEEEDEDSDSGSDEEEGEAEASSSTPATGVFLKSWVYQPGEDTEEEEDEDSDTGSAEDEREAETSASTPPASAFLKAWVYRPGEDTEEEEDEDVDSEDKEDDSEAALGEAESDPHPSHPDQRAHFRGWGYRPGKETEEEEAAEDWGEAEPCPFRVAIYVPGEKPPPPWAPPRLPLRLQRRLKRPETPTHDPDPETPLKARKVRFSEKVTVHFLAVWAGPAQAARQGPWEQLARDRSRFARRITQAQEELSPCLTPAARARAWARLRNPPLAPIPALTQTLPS
T1 sequence (P36873 whole entry partner, the tested form may be a part): as the sequence (P36873 whole entry partner, the tested form may be a part) above
T3 sequence (P36873 whole entry): as the sequence (P36873 whole entry partner, the tested form may be a part) above

Turning to `[H]/N=C(\N)NN=Cc1ccc(Cl)c(F)c1` [Compound 8, (E)-2-(4-chloro-3-fluorobenzylidene)hydrazine-1-carboximidamide], the Kd on PPP1R15A-PP1 complex stood at 6.37 ± 1.03 µM; at PPP1R15B-PP1, 11.3 µM; at PP1, 10.6 ± 3.82 µM. Also, the “Effect on translation ⇒ Inhibits” value in the assay with protein synthesis is “R15AB”.

Regarding `[H]/N=C(\N)NN=Cc1cccc(Cl)c1Br` [Compound 9, (E)-2-(2-bromo-3-chlorobenzylidene)hydrazine-1-carboximidamide], the equilibrium dissociation constant (Kd) on PPP1R15A-PP1 complex turned out to be 13.6 ± 0.8 µM; at PPP1R15B-PP1, 39.6 ± 5.9 µM; on PP1 it was 14.7 ± 1.4 µM. In the assay on protein synthesis, the “Effect on translation ⇒ Inhibits” value is recorded as “Off”.

Take `[H]/N=C(\N)NN=Cc1ccccc1F` [Compound 17, (E)-2-(2-fluorobenzylidene)hydrazine-1-carboximidamide]: the results for the Kd at PPP1R15A-PP1 complex, on PPP1R15B-PP1 and at PP1 were 13 ± 0.5 µM, 18.1 ± 1.8 µM and 12 ± 0.8 µM, respectively. Further, the Effect on translation result in the assay on protein synthesis is reported as “(No)”.

As for `[H]/N=C(\N)NN=Cc1cccc(Cl)c1` [Compound 24, (E)-2-(3-chlorobenzylidene)hydrazine-1-carboximidamide], the dissociation constant (Kd) at PPP1R15A-PP1 complex was 18.1 ± 7.57 µM; at PPP1R15B-PP1, 18.7 µM; on PP1, 6.27 µM. In addition, the “Effect on translation ⇒ Inhibits” value in the assay with protein synthesis is recorded as “R15AB”.

Turning to `[H]/N=C(\N)NN=Cc1cccc(Cl)c1F` [Compound 30, (E)-2-(3-chloro-2-fluorobenzylidene)hydrazine-1-carboximidamide], the figures for the dissociation constant Kd on PPP1R15A-PP1 complex, on PPP1R15B-PP1 and on PP1 were 5.15 ± 1.7 µM, 12.3 ± 0.6 µM and 12.8 ± 0.08 µM, respectively. In addition, the Effect on translation result with protein synthesis is reported as “No”.

As to `[H]/N=C(\N)NN=Cc1c(Cl)ccc(Cl)c1Cl` [Compound 31, (E)-2-(2,3,6-trichlorobenzylidene)hydrazine-1-carboximidamide], the Kd on PPP1R15A-PP1 complex turned out to be 11.1 ± 1.6 µM; on PPP1R15B-PP1 it was 14.3 ± 0.7 µM; at PP1, 12.6 ± 1.4 µM. The Effect on translation result in the assay with protein synthesis is reported as “No”.

The record behind these values is patent US11154519B2, “Inhibitors and their uses” (MEDICAL RESEARCH COUNCIL, priority 2015, dated 2021).
